From patent US9255279B2, “Anaplastic lymphoma kinase (ALK) as an oncogene capable of transforming normal human cells” (The Trustees of the University of Pennsylvania, priority 2013, dated 2016)

Key:
[1] = system: IL-10; assay: IL-10 assay; assay type: cell-based, human; conditions: 100 nM; FIG. 3C
Experimental: IL-10 expression was using a Human Cytokine 10-Plex Antibody Bead Kit (Life Technologies) as per manufacturer protocol. Sample acquisition employed a Luminex FlexMAP-3D (Life Technologies), and analyses performed using xPONENT software (version 4.0). A nine-point standard curve at threefold dilutions was employed with the range defined by 80%-120% of expected/observed values. Samples were tested in duplicate and CV was <10%. The results are presented as the decrease in the ALK inhibitor (CEP-28122)-treated cells relative to untreated cells.
Total RNA was extracted (RNeasy kit; Qiagen) and reverse transcribed using High Capacity RNA-to-cDNA kit (ABI). Expression levels of NPM-ALK mRNA were quantified by using an ABI/PRISM 7700 sequence detection system with TaqMan Gene Expression Assay kits (NPM-ALK, Hs03024829; β-actin, Hs9999903) (Life Technologies) and SYBR Green assay (Life Technologies) using primers for IL-10 (5′-AAGGCGCATGTGAACTCC-3′; SEQ ID NO: 1 and 5′-[…]-3′; SEQ ID NO: 2) and for GAPDH (5′-[…]-3′; SEQ ID NO: 3 and 5′-[…]-3′; SEQ ID NO: 4. All assays were performed in duplicate. The fold difference in RNA levels was calculated on the basis of the difference between CT values obtained for control and individual mRNA (ΔCT).

[2] = system: CD30; assay: CD30 expression by flow cytometry in NPM-ALK-transformed CD4+ T cells and ALK+ALCL-derived cells; assay type: cell-based, human; conditions: 100 nM, FIG. 3B
Experimental: (§1) The cells were analyzed using FACSCalibur (BD Biosciences) and, for data analysis, CellQuest Pro software version 6.03 (BD Biosciences). For the standard cell-surface staining, 0.5−1.0×10^6 cells were incubated for 20 minutes at 4° C. with 10-20 ul of fluorescein isothiocyanate-conjugated (FITC), phycoerythrin-conjugated (PE), or allophycocyanin-conjugated (APC) standard anti-T- and B-cell antibodies, PD-L1 or isotype control antibody (Bio-Legend, San Diego, Calif.). The intracellular staining was performed by using commercially available fixation and permeabilization reagents (BD Biosciences or Life Technologies, Carlsbad, Calif.). In brief, 0.5−1.0×10^6 washed membrane-stained or unstained cells were fixed for 15 minutes at room temperature with 100 ul of Fix/Per-solution or Fixation medium. After washing the cells were re-suspended in 100 ul of PBS or Permeabilization medium, and incubated for 15 minutes at room temperature with 10-20 ul of PE-labeled ALK or isotype control antibody (BD Biosciences). After additional washing, cells were analyzed by flow cytometry (FACSCalibur; BD Biosciences). Data acquisition and analysis were performed using CellQuest Pro software version 6.03 (BD Biosciences).

[3] = system: PD-L1; assay: PD-L1 expression by flow cytometry; assay type: cell-based, human; conditions: 100 nM; FIG. 3D
Experimental: as §1

[4] = target: T1, NPM-ALK (Homo sapiens, UniProt Q9UM73); assay: Phosphorylation of ALK and its targets in NPM-ALK-transfected HEK cells; assay type: cell-based; design: expressed in transfected cells; the other entry of the earlier key: NPM1 (P06748, Nucleophosmin); conditions: higher dose of inhibitor needed, FIG. 10
Experimental: (§2) These experiments were performed using antibodies against phosphorylated (p)-ALK, p-STAT3, p-S6RP, total S6RP (Cell Signaling Technology), total NPM-ALK (Pharmigen, San Diego, Calif.), and total STAT3 and actin (ACTB), both from Santa Cruz Biotechnology (Santa Cruz, Calif.), according to the standard protocols.

[5] = system: NPM-ALK-transformed CD4+ T cells; assay: Cell growth of NPM-ALK-transformed CD4+ T cells; assay type: cell-based, human; conditions: FIG. 3E and FIG. 12A
Experimental: The cells suspended at 2×10^4/well were incubated at 37° C. in microtiter plates for up to two days, then incubated with MTT (Promega Madison, […].) for 4 hours. Well contents were solubilized overnight in the medium containing 10% SDS and 0.01M HCL. Absorbance at 570 nm in each well was measured using a Titertek Multiskan reader (Thermo Fisher Scientific).
The assay was performed using a cell-proliferation enzyme linked immunosorbent assay (ELISA; Roche Diagnostics, Indianapolis, Ind.) according to the manufacturer's protocol. In brief, cells were cultured at a concentration of 2×10^4 cells per well for 44 hours and labeled with bromodeoxyuridine for 4 hours. After centrifugation, supernatant removal, and plate drying, the cells were fixed and the DNA was denatured using FixDenat reagent (Roche Diagnostics). The amount of incorporated bromodeoxyuridine was determined by incubation with a specific antibody conjugated with horseradish peroxidase, followed by colorimetric conversion of the substrate and absorbance evaluation in the ELISA plate reader.
For annexin V expression assay, cells were treated with the ALK inhibitor CEP-28122 (100 nmol/L) for 48 hours or with ALK siRNA (100 pmol/L) for 72 hours. […] The stained cells were analyzed by flow cytometry using a FACSCalibur system (BD Biosciences); data acquisition and analysis were performed using Cell-Quest Pro software (BD Biosciences).

[6] = system: CD30; assay: CD30 expression in ALK-negative T-cell lymphoma line 2A; assay type: cell-based, human; conditions: ALK-negative T-cell lymphoma cells (2A); FIG. 3B
Experimental: as §1

[7] = target: T1, NPM-ALK; assay: Western blotting of phosphorylated signaling proteins in NPM-ALK-transformed CD4+ T cells (NA1, NA2) and SUDHL-1; assay type: cell-based; design: expressed in transfected cells; host or cells: Human CD4+ T cells transduced with a lentiviral vector (lines NA1, NA2); The control line SUDHL-1 expresses NPM-ALK endogenously from the translocation; the other entry of the earlier key: NPM1 (P06748, Nucleophosmin); conditions: NA1, NA2 and control SUDHL-1 cells, 100 nM, FIG. 3A
Experimental: as §2
A mixture of four siRNAs specific for ALK or control siRNAs (all from Dharmacon; Thermo Fisher Scientific, Waltham, Mass.) was introduced into cells using Lipofectamine 2000 as described previously (Marzec et al., 2008, Proc Natl Acad Sci USA 105(52):20852-20857) for SUDHL-1 cells and Nucleofector T-solution (Amaxa; Lonza, Walkersville, Md.) for CD4+ T-cell derived NA1 cells.

T1 sequence (Q9UM73 with tags, fused parts or gaps): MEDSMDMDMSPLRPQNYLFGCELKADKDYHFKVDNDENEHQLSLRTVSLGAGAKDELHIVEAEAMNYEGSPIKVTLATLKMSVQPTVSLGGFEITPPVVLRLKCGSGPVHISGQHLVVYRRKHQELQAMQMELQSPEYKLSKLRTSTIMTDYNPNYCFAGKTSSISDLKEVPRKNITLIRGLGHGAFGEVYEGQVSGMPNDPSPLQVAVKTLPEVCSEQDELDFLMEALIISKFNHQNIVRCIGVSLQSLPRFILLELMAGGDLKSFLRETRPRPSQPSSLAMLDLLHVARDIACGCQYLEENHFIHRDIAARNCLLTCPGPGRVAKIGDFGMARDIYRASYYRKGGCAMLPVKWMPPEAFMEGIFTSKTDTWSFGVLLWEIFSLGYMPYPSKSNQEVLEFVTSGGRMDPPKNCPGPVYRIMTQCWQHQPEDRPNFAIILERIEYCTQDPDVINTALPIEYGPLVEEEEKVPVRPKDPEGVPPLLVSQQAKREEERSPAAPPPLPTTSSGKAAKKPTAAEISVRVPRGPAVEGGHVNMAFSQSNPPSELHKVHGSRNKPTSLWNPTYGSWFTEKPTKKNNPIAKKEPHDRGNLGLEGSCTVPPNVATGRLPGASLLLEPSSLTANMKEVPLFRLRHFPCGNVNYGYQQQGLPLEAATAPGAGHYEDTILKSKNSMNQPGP

COc1c(Nc2ncc(Cl)c(N[C@H]3[C@@H](C(N)=O)[C@@H]4C=C[C@H]3C4)n2)ccc2c1CC[C@@H](N1CCOCC1)CC2 [CEP-28122]
synthesis of IL-10 [1]: Suppressive effect
expression of CD30 [2]: Suppressive effect
expression of CD30 ([2]; listed as ALK inhibitor): diminished
expression of PDL-1 [3]: Suppressive effect
ALK, STAT3 and S6RP phosphorylation [4]: suppress
cell growth [5]: dose-dependent inhibition
cell growth ([5]; listed as ALK inhibitor): suppressed
CD30 expression [6]: no effect
phosphorylation of cell signaling proteins (ALK, STAT3, S6RP) [7]: Suppressive effect
phosphorylation of cell signaling proteins (ALK, STAT3, S6RP) ([7]; listed as ALK inhibitor): suppression
